# Test results taken from patent US11548855B2, “Pyrazole amide compound and application thereof, and fungicide” (Shandong United Pesticide Industry Co. Ltd., priority 2017, dated 2023).
# Like-named read-outs stand apart in the source and are kept apart here.
# Tests used:
# [1] = test system: rice sheath blight fungi (Rhizoctonia solami); assay: Greenhouse pot test, rice sheath blight; format: in vivo
# Method: (§1) The compounds provided by the present disclosure and some control compounds were tested by the same methods in the Test example 1, except that the effective concentrations of the compounds in this Test example are shown in Table 2.
# In addition, the test method for rice sheath blight as following steps:
# The potted rice seedling with uniform growth was selected, and dried in the shade for 24 h after spray treatment, then inoculated 3 blocks of 0.25 cm^2 rice sheath blight fungi (Rhizoctonia solami) at the base of seedling by clamp inoculation bacterium block method. The test materials inoculated were moved into greenhouse (temperature: lighting 28° C., dark 25° C., relative humidity 95%), after 7 days, investigate 5 leaves of per block treatment, the grading investigation was carried out according to the disease incidence condition of sheaths and leaves of rice, “Guidelines for the field efficacy trials of pesticides” was adopted as the grading standard, the disease index was calculated according to the grading standard, and the control effect in a unit of % was calculated according to disease index.
# cucumber powdery mildew = assay: Greenhouse pot test, cucumber powdery mildew; format: in vivo; conditions: for pest or weed control at 6.25 µg/mL / pest or weed control at 25 µg/mL / pest or weed control at 100 µg/mL: Cucumis sativus, 192 h, read-out: Control effect (%) Cucumber powdery mildew
# Method: (§2) Test method: each of the test compounds in Table 1 was dispensed to 5 wt % emulsifiable concentrate (hereinafter referred to as 5% EC). The greenhouse pot test was used in each experiment, and the effective concentrations of each compound were illustrated in Table 1.
# Cucumber powdery mildew: cucumber seedling in a true leaf period with uniform growth was selected, and dried in the shade for 24 h after spray treatment. Fresh cucumber powdery mildew spores on the cucumber leaves were collected and washed, and filtered through a double gauze to prepare a spores suspension with concentration of about 100,000/mL, then spray inoculation was applied. The test materials inoculated were moved into a greenhouse (lighting 21-23° C.), after 8 days, the grading investigation was carried out according to the disease incidence condition of blank control, and the control effect in a unit of % was calculated according to disease index.
# (§3) The investigation method: “Guidelines for the field efficacy trials of pesticides” was adopted as the grading standard, and the control effect in a unit of % was calculated based on the disease index. Disease index=Σ(number of diseased leaves at each grade×relative grade value)×100/(total number of leaves×9); Control effect (%)=(disease index of control−disease index of treated)×100/disease index of control;
# as §1
# soybean rust = assay: Field trial, soybean rust; format: in vivo, Phakopsora pacchyrhizi Sydow; conditions: dosage 50 mg/L, sprayed 2 times
# Method: III. The Soybean Rust Test Method:
# Spray method: Stein and leaf spraying (Applicator: Xinkangda lithium battery electric sprayer).
# Test crops: soybean (cultivars: Glycine max(L) Merr)
# The test was carried out in Shenyang, the test field was loam with rich organic matters and normal management of fertilizer and water, and no other pesticide was applied during the test.
# The arrangement of the test plot was random block permutation; the area of the test plot: 25 m^2; repeat times: 3 times; spray time and frequency: 2 times on Aug. 11, 2018 and Aug. 21, 2018 respectively. Spray dosage: each treatment was repeated 3 times, the total water consumption was 8 L. No other pesticide was applied during the test. […] 15-20 days after the second spray treatment, the control effect was investigated.
# The incidence of disease spots in each plot was investigated by diagonal selecting 5 samples/plot and 20 plants/samples, 10 leaves/plant was surveyed.
# The grading standard of crop disease was as follows:
# Grade 0: no leaf-spot area;
# Grade 1: the ratio of leaf-spot area to leaf area is less than 5%;
# Grade 3: the ratio of leaf-spot area to leaf area is between 6-25%;
# Grade 5: the ratio of leaf-spot area to leaf area is between 26-50%;
# Grade 7: the ratio of leaf-spot area to leaf area is between 51-75%;
# Grade 9: the ratio of leaf-spot area to leaf area is between 76-100%;
# According to the relevant content of the “Guidelines for the field efficacy trials of pesticides of the People's Republic of China (PRC)”, the disease index was calculated according to the grading standard, and the control effect in a unit of % was calculated based on the disease index, and the test data of significance analysis was performed by using DPS evaluation system (DMRT).
# [2] = test system: corn rust (Puccinia sorghi); assay: Greenhouse pot test, corn rust; format: in vivo; conditions: Puccinia sorghi, 168 h, read-out: Control effect (%) Corn rust; for pest or weed control at 6.25 µg/mL: 6.25 mg/L; for pest or weed control at 25 µg/mL: 25 mg/L; for pest or weed control at 100 µg/mL: 100 mg/L; for pest or weed control at 1.5625 µg/mL: 1.5625 mg/L; for pest or weed control at 3.125 µg/mL: 3.1250 mg/L
# Method: as §2
# Corn rust: two-three leaf stage potted corn seedling with uniform growth was selected and made foliar spray treatment with 5% EC, the blank control sprayed with clean water was additionally arranged, three replicates were carried out. After 24 h, the leaves of the host plants were inoculated with sporangial suspensions of the fungi corn rust (Puccinia sorghi), the plants were stored in humidity chamber (temperature: lighting 25° C., dark 20° C., relative humidity 95-100%) and then transferred to greenhouse (25±1° C.) 24 h after infection. After 7 days, the screening results were investigated according to the disease incidence condition of blank control.
# as §3, §1
# [3] = test system: wheat powdery mildew (Erysiphe graminis); assay: Greenhouse pot test, wheat powdery mildew; format: in vivo; conditions: Blumeria graminis, 168 h, read-out: Control effect (%) Wheat powdery mildew; for pest or weed control at 6.25 µg/mL: 6.25 mg/L; for pest or weed control at 25 µg/mL: 25 mg/L; for pest or weed control at 100 µg/mL: 100 mg/L; for pest or weed control at 1.5625 µg/mL: 1.5625 mg/L; for pest or weed control at 3.125 µg/mL: 3.1250 mg/L
# Text: as §2
# Wheat powdery mildew: two-leaf stage potted wheat seedling with uniform growth was selected and made foliar spray treatment with 5% EC, the blank control sprayed with clean water was additionally arranged, three replicates were carried out. After 24 h, the leaves of the host plants were inoculated by shake-down method with sporangial suspensions of the fungi wheat powdery mildew (Erysiphe graminis), the plants were stored in a greenhouse (25±1° C.). After 7 days, the screening results were investigated according to the disease incidence condition of blank control.
# as §3, §1
# [4] = test system: soybean rust (Phakopsora pacchyrhizi Sydow); assay: Greenhouse pot test, soybean rust; format: in vivo; conditions: Glycine max, 168 h, read-out: Control effect (%) Soybean rust; for pest or weed control at 6.25 µg/mL: 6.25 mg/L; for pest or weed control at 25 µg/mL: 25 mg/L; for pest or weed control at 100 µg/mL: 100 mg/L; for pest or weed control at 1.5625 µg/mL: 1.5625 mg/L; for pest or weed control at 3.125 µg/mL: 3.1250 mg/L
# Method: as §2
# Soybean rust: two-leaf stage potted soybean seedling with uniform growth was selected and made foliar spray treatment with 5% EC, the blank control sprayed with clean water was additionally arranged, three replicates were carried out. After 24 h, the leaves of the host plants were inoculated with sporangial suspensions of the fungi soybean rust (Phakopsora pacchyrhizi Sydow), the plants were stored in humidity chamber (temperature 20-25° C., relative humidity>95%) and then transferred to greenhouse (25±1° C.) 8-16 h after infection. After 7 days, the screening results were investigated according to the disease incidence condition of blank control.
# as §3, §1
SMILES,"pest or weed control at 6.25 µg/mL (cucumber powdery mildew; greenhouse pot, 6.25 mg/L) [%]","pest or weed control at 25 µg/mL (cucumber powdery mildew; greenhouse pot, 25 mg/L) [%]","pest or weed control at 100 µg/mL (cucumber powdery mildew; greenhouse pot, 100 mg/L) [%]",pest or weed control at 6.25 µg/mL [2] [%],pest or weed control at 25 µg/mL [2] [%],pest or weed control at 100 µg/mL [2] [%],pest or weed control at 6.25 µg/mL [3] [%],pest or weed control at 25 µg/mL [3] [%],pest or weed control at 100 µg/mL [3] [%],pest or weed control at 6.25 µg/mL [4] [%],pest or weed control at 25 µg/mL [4] [%],pest or weed control at 100 µg/mL [4] [%],further results
Fc1ccc([C@]2(Cn3cncn3)O[C@H]2c2ccccc2Cl)cc1 (racemic) [Epoxiconazole],,,,,,,,,,,,,Control effect (%) Rice sheath blight ([1]; 0.625 mg/L): 30%; Control effect (%) Rice sheath blight ([1]; 2.5 mg/L): 70%; Control effect (%) Rice sheath blight ([1]; 10 mg/L): 100%
CO/C=C(/C(=O)OC)c1ccccc1Oc1cc(Oc2ccccc2C#N)ncn1 [Azoxystrobin],,,,,,,,,,,,,"Control effect (%) Cucumber powdery mildew (cucumber powdery mildew; greenhouse pot, 100 mg/L): 0%; Control effect (%) Cucumber powdery mildew (cucumber powdery mildew; greenhouse pot, 400 mg/L): 30%; Control effect (%) (soybean rust): 84.62%"
Cn1nc(C(F)F)c(C(=O)Nc2ccccc2Oc2ccc(C(F)(F)F)cc2Br)c1F [Compound 2],45,55,88,98,100,100,70,75,85,96,100,100,
Cn1nc(C(F)F)c(C(=O)Nc2ccccc2Oc2ccc(C(F)(F)F)cc2I)c1F [Compound 3],45,70,95,75,100,100,65,80,80,85,100,100,
Cn1cc(C(=O)Nc2ccccc2Oc2cc(C(F)(F)F)ccc2C(F)(F)F)c(C(F)F)n1 [Compound 5],,,,70,75,85,10,40,50,95,98,100,
Cn1nc(C(F)F)c(C(=O)Nc2ccccc2Oc2ccc(C(F)(F)F)cc2C(F)(F)F)c1F [Compound 6],50,75,98,98,100,100,85,90,92,90,100,100,
Cn1cc(C(=O)Nc2ccccc2Oc2ccc(Cl)cc2Cl)c(C(F)F)n1 [Compound 7],30,60,89,90,95,100,60,75,90,96,98,100,pest or weed control at 1.5625 µg/mL [2]: 50%; pest or weed control at 3.125 µg/mL [2]: 60%; pest or weed control at 1.5625 µg/mL [3]: 0%; pest or weed control at 3.125 µg/mL [3]: 50%; pest or weed control at 1.5625 µg/mL [4]: 90%; pest or weed control at 3.125 µg/mL [4]: 100%
Cn1cc(C(=O)Nc2ccccc2Oc2ccc(C(F)(F)F)cc2Cl)c(C(F)F)n1 [Compound 8],40,60,95,95,99,100,65,75,94,99,100,100,pest or weed control at 1.5625 µg/mL [2]: 85%; pest or weed control at 3.125 µg/mL [2]: 98%; pest or weed control at 1.5625 µg/mL [3]: 70%; pest or weed control at 3.125 µg/mL [3]: 90%; pest or weed control at 1.5625 µg/mL [4]: 98%; pest or weed control at 3.125 µg/mL [4]: 100%
CC1COC(Cn2cncn2)(c2ccc(Oc3ccc(Cl)cc3)cc2Cl)O1 (stereo not drawn) [Difenoconazole],,,80,,,,,,,,,,
CCCCc1c(C)nc(NCC)[nH]c1=O [Ethirimol],,,,,,,,,,,,,pest or weed control at 100 µg/mL (cucumber powdery mildew): 100%
Cn1cc(C(=O)Nc2ccccc2-c2cc(F)c(F)c(F)c2)c(C(F)F)n1 [Fluxapyroxad],,,,,,,,,,,,,"Control effect (%) Cucumber powdery mildew (cucumber powdery mildew; greenhouse pot, 1.5625 mg/L): 55%; Control effect (%) Cucumber powdery mildew (cucumber powdery mildew; greenhouse pot, 6.25 mg/L): 95%; Control effect (%) Cucumber powdery mildew (cucumber powdery mildew; greenhouse pot, 25 mg/L): 100%; Control effect (%) Cucumber powdery mildew (cucumber powdery mildew; greenhouse pot, 100 mg/L): 100%"
